The record followed here is patent US20080021026A1, “BENZOTHIOPHENE INHIBITORS OF RHO KINASE” (priority 2006, published 2008).

Assay [1] has as its target T1, recombinant N-terminal GST-tagged human Rho kinase 2 (ROCK2, amino acids 1-552) (Homo sapiens, UniProt O75116).
T1 construct: ROCK2, amino acids 1-552; purchased Invitrogen Inc. PV3759
The assay can be described thus: In vitro Rho kinase assay (luciferase-based ATP consumption), ROCK2. The class given is biochemical. Put shortly:
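Luciferase-based luminescence of leftover ATP after 2 h at 30 °C, where inhibition raises signal, reports activity of GST-tagged ROCK2 (aa 1-552) at 0.82 μg/ml. Conditions: S6 peptide 100 μg/ml, […], pH 7.5 Tris buffer. Results given as percent of H-1152P control activity.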

Assay [2] deals with T2, recombinant N-terminal GST-tagged human Rho kinase 1 (ROCK1, amino acids 1-535) (Homo sapiens, UniProt Q13464).
T2 construct: ROCK1, amino acids 1-535; purchased Invitrogen Inc. PV-3691
T2 sequence (Q13464 1-535): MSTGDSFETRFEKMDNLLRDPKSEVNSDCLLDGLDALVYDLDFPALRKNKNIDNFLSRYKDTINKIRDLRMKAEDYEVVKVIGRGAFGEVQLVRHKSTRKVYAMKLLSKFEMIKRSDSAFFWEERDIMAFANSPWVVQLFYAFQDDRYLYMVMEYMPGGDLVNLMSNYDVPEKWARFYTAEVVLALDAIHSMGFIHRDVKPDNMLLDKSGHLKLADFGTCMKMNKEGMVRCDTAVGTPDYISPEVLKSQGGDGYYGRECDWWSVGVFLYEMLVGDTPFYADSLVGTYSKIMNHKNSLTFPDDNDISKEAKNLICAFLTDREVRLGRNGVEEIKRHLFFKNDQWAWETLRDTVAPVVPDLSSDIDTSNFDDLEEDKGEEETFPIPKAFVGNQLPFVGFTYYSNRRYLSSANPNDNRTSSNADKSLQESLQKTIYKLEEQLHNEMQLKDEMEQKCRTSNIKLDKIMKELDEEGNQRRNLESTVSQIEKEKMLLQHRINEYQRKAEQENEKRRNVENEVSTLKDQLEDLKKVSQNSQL
The assay is described as follows: In vitro Rho kinase assay (luciferase-based ATP consumption), ROCK1. The class given is biochemical. The method in brief: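 ATP depletion measured by firefly luciferase luminescence after 2 h at 30 °C, with inhibition raising signal and activity expressed relative to H-1152P. Reaction: 0.82 μg/ml recombinant GST-tagged ROCK1 (aa 1-535), S6 peptide 100 μg/ml, […], pH 7.5 Tris buffer.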

The mark [3] stands for this setting: recombinant GST-tagged human ROCK2, luciferase-based ATP consumption, read-out: ROCK2 IC50.
[4] abbreviates: recombinant GST-tagged human ROCK1, luciferase-based ATP consumption, read-out: ROCK1 IC50.
Setting [5] is: ROCK2 IC50, recombinant GST-tagged human ROCK2, luciferase-based ATP consumption.
Setting [6] is: ROCK1 IC50, recombinant GST-tagged human ROCK1, luciferase-based ATP consumption.

SMILES strings stand for the structures. Where two headings read alike, the source gives them in different places.

T1 sequence (O75116 1-552): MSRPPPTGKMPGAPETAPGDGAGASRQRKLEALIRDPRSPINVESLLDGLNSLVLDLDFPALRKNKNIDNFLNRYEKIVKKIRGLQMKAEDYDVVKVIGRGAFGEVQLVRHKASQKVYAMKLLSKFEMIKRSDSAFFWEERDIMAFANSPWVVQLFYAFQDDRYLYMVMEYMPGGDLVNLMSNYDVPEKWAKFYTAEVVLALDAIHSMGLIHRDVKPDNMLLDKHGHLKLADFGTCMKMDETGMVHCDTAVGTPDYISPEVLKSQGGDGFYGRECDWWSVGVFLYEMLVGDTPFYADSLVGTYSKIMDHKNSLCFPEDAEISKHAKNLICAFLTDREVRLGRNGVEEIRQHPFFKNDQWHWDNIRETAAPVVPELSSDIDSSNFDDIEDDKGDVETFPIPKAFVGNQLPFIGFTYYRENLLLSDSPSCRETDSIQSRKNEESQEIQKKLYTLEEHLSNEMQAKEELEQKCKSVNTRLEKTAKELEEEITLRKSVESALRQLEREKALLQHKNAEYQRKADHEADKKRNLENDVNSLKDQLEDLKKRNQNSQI

As usually defined, the IC50 is the concentration needed to halve the response being measured. On to `CCCCOc1ccc(C(=O)NCc2ccc3sc(-c4ccnc(N)n4)c(C)c3c2)cc1` [Example 257, CCCCOc1ccc(cc1)C(═O)NCc2ccc3sc(c(C)c3c2)-c4ccnc(N)n4], for which the IC50 in assay [1] (setting [3]) and in assay [2] (setting [4]) was > 5 µM throughout.
`Cc1c(-c2ccnc(N)n2)sc2ccc(CNC(=O)c3cc4cc(Cl)ccc4o3)cc12` [Example 258, Cc1c(sc2ccc(CNC(═O)c3cc4cc(Cl)ccc4o3)cc12)-c5ccnc(N)n5]: the IC50 in assay [1] (setting [3]) and in assay [2] (setting [4]) was < 5 µM throughout.
With `COc1ccc([N+](=O)[O-])c(C(=O)NCc2ccc3sc(-c4ccnc(N)n4)c(C)c3c2)c1` [Example 259, COc1ccc(c(c1)C(═O)NCc2ccc3sc(c(C)c3c2)-c4ccnc(N)n4)[N+]([O−])═O], the half-inhibitory concentration (IC50) in assay [1] (setting [3]) and in assay [2] (setting [4]) was < 5 µM each time.
Consider `COc1cc(C(=O)NCc2ccc3sc(-c4ccnc(N)n4)c(C)c3c2)cc(OC)c1O` [Example 260, COc1cc(cc(OC)c1O)C(═O)NCc2ccc3sc(c(C)c3c2)-c4ccnc(N)n4], for which the figures for the IC50 in assay [1] (setting [3]) and in assay [2] (setting [4]) were < 5 µM and > 5 µM, respectively.
Take `Cc1c(-c2ccnc(N)n2)sc2ccc(CNC(=O)c3ccccc3-c3ccccc3)cc12` [Example 261, Cc1c(sc2ccc(CNC(═O)c3ccccc3-c4ccccc4)cc12)-c5ccnc(N)n5]: the IC50 in assay [1] (setting [3]) was < 5 µM; in assay [2] (setting [4]), > 5 µM.
As to `Cc1c(-c2ccnc(N)n2)sc2ccc(CNC(=O)c3cccc(Br)c3)cc12` [Example 262, Cc1c(sc2ccc(CNC(═O)c3cccc(Br)c3)cc12)-c4ccnc(N)n4], the IC50 was < 5 µM in assay [1] (setting [3]) and > 5 µM in assay [2] (setting [4]).
For `Cc1c(-c2ccnc(N)n2)sc2ccc(CNC(=O)c3ccc(Br)cc3)cc12` [Example 263, Cc1c(sc2ccc(CNC(═O)c3ccc(Br)cc3)cc12)-c4ccnc(N)n4], the IC50 was < 5 µM in assay [1] (setting [3]) and > 5 µM in assay [2] (setting [4]).
Consider `Cc1c(-c2ccnc(N)n2)sc2ccc(CNC(=O)c3cccc(Cl)c3[N+](=O)[O-])cc12` [Example 264, Cc1c(sc2ccc(CNC(═O)c3cccc(Cl)c3[N+]([O−])═O)cc12)-c4ccnc(N)n4], for which the IC50 in assay [1] (setting [3]) is < 5 µM; in assay [2] (setting [4]), > 5 µM.
Consider `Cc1c(-c2ccnc(N)n2)sc2ccc(CNC(=O)c3cc([N+](=O)[O-])ccc3Cl)cc12` [Example 265, Cc1c(sc2ccc(CNC(═O)c3cc(ccc3Cl)[N+]([O−])═O)cc12)-c4ccnc(N)n4], for which the concentration for half-maximal inhibition (IC50) in assay [1] (setting [5]) is < 5 µM; in assay [2] (setting [6]) it was > 5 µM.
For `Cc1c(-c2ccnc(N)n2)sc2ccc(CNC(=O)c3ccc([N+](=O)[O-])cc3Cl)cc12` [Example 266, Cc1c(sc2ccc(CNC(═O)c3ccc(cc3Cl)[N+]([O−])═O)cc12)-c4ccnc(N)n4] the same measures were < 5 µM and > 5 µM.
Consider `Cc1c(-c2ccnc(N)n2)sc2ccc(CNC(=O)c3ccc(Cl)cc3[N+](=O)[O-])cc12` [Example 267, Cc1c(sc2ccc(CNC(═O)c3ccc(Cl)cc3[N+]([O−])═O)cc12)-c4ccnc(N)n4], for which the concentration for half-maximal inhibition (IC50) is < 5 µM in assay [1] (setting [3]) and > 5 µM in assay [2] (setting [4]).
As to `Cc1c(-c2ccnc(N)n2)sc2ccc(CNC(=O)c3ccc(Cl)c([N+](=O)[O-])c3)cc12` [Example 268, Cc1c(sc2ccc(CNC(═O)c3ccc(Cl)c(c3)[N+]([O−])═O)cc12)-c4ccnc(N)n4], the IC50 in assay [1] (setting [3]) is < 5 µM; in assay [2] (setting [4]), > 5 µM.
As for `Cc1c(-c2ccnc(N)n2)sc2ccc(CNC(=O)c3cc(Cl)ccc3[N+](=O)[O-])cc12` [Example 269, Cc1c(sc2ccc(CNC(═O)c3cc(Cl)ccc3[N+]([O−])═O)cc12)-c4ccnc(N)n4], the IC50 in assay [1] (setting [3]) and in assay [2] (setting [4]) was < 5 µM throughout.
Take `Cc1c(-c2ccnc(N)n2)sc2ccc(CNC(=O)c3cccc(Br)n3)cc12` [Example 270, Cc1c(sc2ccc(CNC(═O)c3cccc(Br)n3)cc12)-c4ccnc(N)n4]: the IC50 in assay [1] (setting [3]) and in assay [2] (setting [4]) was < 5 µM in each case.
For the compound `Cc1c(-c2ccnc(N)n2)sc2ccc(CNC(=O)c3cncc(Br)c3)cc12` [Example 271, Cc1c(sc2ccc(CNC(═O)c3cncc(Br)c3)cc12)-c4ccnc(N)n4], the IC50 was < 5 µM in assay [1] (setting [3]) and > 5 µM in assay [2] (setting [4]).
`Cc1c(-c2ccnc(N)n2)sc2ccc(CNC(=O)c3cc(F)c(F)cc3[N+](=O)[O-])cc12` [Example 272, Cc1c(sc2ccc(CNC(═O)c3cc(F)c(F)cc3[N+]([O−])═O)cc12)-c4ccnc(N)n4]: the IC50 is < 5 µM in assay [1] (setting [3]) and > 5 µM in assay [2] (setting [4]).
Regarding `Cc1c(-c2ccnc(N)n2)sc2ccc(CNC(=O)Cc3ccc(C(F)(F)F)cc3)cc12` [Example 273, Cc1c(sc2ccc(CNC(═O)Cc3ccc(cc3)C(F)(F)F)cc12)-c4ccnc(N)n4], the concentration for half-maximal inhibition (IC50) in assay [1] (setting [3]) and in assay [2] (setting [4]) was < 5 µM throughout.
As to `Cc1c(-c2ccnc(N)n2)sc2ccc(CNC(=O)C(C)c3ccc(CC(C)C)cc3)cc12` (centres unmarked) [Example 274, CC(C)Cc1ccc(cc1)C(C)C(═O)NCc2ccc3sc(c(C)c3c2)-c4ccnc(N)n4], the 50% inhibitory concentration (IC50) in assay [1] (setting [3]) and in assay [2] (setting [4]) was > 5 µM in each case.
As for `Cc1c(-c2ccnc(N)n2)sc2ccc(CNC(=O)c3cc(Cl)c(O)c(Cl)c3)cc12` [Example 275, Cc1c(sc2ccc(CNC(═O)c3cc(Cl)c(O)c(Cl)c3)cc12)-c4ccnc(N)n4], the 50% inhibitory concentration (IC50) in assay [1] (setting [3]) is > 5 µM; in assay [2] (setting [4]), < 5 µM.
As for `Cc1c(-c2ccnc(N)n2)sc2ccc(CNC(=O)c3c(F)c(F)c(F)c(F)c3F)cc12` [Example 276, Cc1c(sc2ccc(CNC(═O)c3c(F)c(F)c(F)c(F)c3F)cc12)-c4ccnc(N)n4], the IC50 in assay [1] (setting [3]) and in assay [2] (setting [4]) was < 5 µM in each case.
For `COc1cc(OC)c(C(=O)NCc2ccc3sc(-c4ccnc(N)n4)c(C)c3c2)c(OC)c1` [Example 277, COc1cc(OC)c(C(═O)NCc2ccc3sc(c(C)c3c2)-c4ccnc(N)n4)c(OC)c1], the IC50 in assay [1] (setting [3]) and in assay [2] (setting [4]) was < 5 µM in each case.
Take `COc1cc(OC)c(C(=O)NCc2ccc3sc(-c4ccnc(N)n4)c(C)c3c2)cc1OC` [Example 278, COc1cc(OC)c(cc1OC)C(═O)NCc2ccc3sc(c(C)c3c2)-c4ccnc(N)n4]: the IC50 in assay [1] (setting [3]) and in assay [2] (setting [4]) was < 5 µM throughout.
On to `COc1cc(C(=O)NCc2ccc3sc(-c4ccnc(N)n4)c(C)c3c2)cc(OC)c1OC` [Example 279, COc1cc(cc(OC)c1OC)C(═O)NCc2ccc3sc(c(C)c3c2)-c4ccnc(N)n4], for which the half-maximal inhibitory concentration (IC50) in assay [1] (setting [3]) was < 5 µM; in assay [2] (setting [4]), > 5 µM.
For `COc1ccc(C(=O)NCc2ccc3sc(-c4ccnc(N)n4)c(C)c3c2)c(OC)c1OC` [Example 280, COc1ccc(C(═O)NCc2ccc3sc(c(C)c3c2)-c4ccnc(N)n4)c(OC)c1OC], the IC50 in assay [1] (setting [3]) was < 5 µM; in assay [2] (setting [4]), > 5 µM.
For the compound `Cc1c(-c2ccnc(N)n2)sc2ccc(CNC(=O)c3ccccc3Cc3ccccc3)cc12` [Example 281, Cc1c(sc2ccc(CNC(═O)c3ccccc3Cc4ccccc4)cc12)-c5ccnc(N)n5], the half-maximal inhibitory concentration (IC50) in assay [1] (setting [3]) is < 5 µM; in assay [2] (setting [4]) it was > 5 µM.
`Cc1c(-c2ccnc(N)n2)sc2ccc(CNC(=O)c3cccc(Oc4ccccc4)c3)cc12` [Example 282, Cc1c(sc2ccc(CNC(═O)c3cccc(Oc4ccccc4)c3)cc12)-c5ccnc(N)n5]: the IC50 in assay [1] (setting [3]) and in assay [2] (setting [4]) was > 5 µM each time.
Take `Cc1c(-c2ccnc(N)n2)sc2ccc(CNC(=O)c3ccccc3Oc3ccccc3)cc12` [Example 283, Cc1c(sc2ccc(CNC(═O)c3ccccc3Oc4ccccc4)cc12)-c5ccnc(N)n5]: the values for the 50% inhibitory concentration (IC50) in assay [1] (setting [3]) and in assay [2] (setting [4]) were > 5 µM and < 5 µM, respectively.
`Cc1c(-c2ccnc(N)n2)sc2ccc(CNC(=O)c3ccc(Oc4ccccc4)cc3)cc12` [Example 284, Cc1c(sc2ccc(CNC(═O)c3ccc(Oc4ccccc4)cc3)cc12)-c5ccnc(N)n5]: the half-inhibitory concentration (IC50) is < 5 µM in assay [1] (setting [3]) and > 5 µM in assay [2] (setting [4]).
With `Cc1c(-c2ccnc(N)n2)sc2ccc(CNC(=O)c3ccc(-c4ccc(O)cc4)cc3)cc12` [Example 285, Cc1c(sc2ccc(CNC(═O)c3ccc(cc3)-c4ccc(O)cc4)cc12)-c5ccnc(N)n5], the concentration for half-maximal inhibition (IC50) in assay [1] (setting [3]) was < 5 µM; in assay [2] (setting [4]), > 5 µM.
Consider `Cc1cc(C(=O)NCc2ccc3sc(-c4ccnc(N)n4)c(C)c3c2)ccc1Br` [Example 286, Cc1cc(ccc1Br)C(═O)NCc2ccc3sc(c(C)c3c2)-c4ccnc(N)n4], for which the half-inhibitory concentration (IC50) in assay [1] (setting [3]) and in assay [2] (setting [4]) was > 5 µM throughout.
Take `Cc1ccc(C(=O)NCc2ccc3sc(-c4ccnc(N)n4)c(C)c3c2)cc1Br` [Example 287, Cc1ccc(cc1Br)C(═O)NCc2ccc3sc(c(C)c3c2)-c4ccnc(N)n4]: the values for the IC50 in assay [1] (setting [3]) and in assay [2] (setting [4]) were < 5 µM and > 5 µM, respectively.
For `Cc1c(-c2ccnc(N)n2)sc2ccc(CNC(=O)Cc3ccc(Br)cc3)cc12` [Example 288, Cc1c(sc2ccc(CNC(═O)Cc3ccc(Br)cc3)cc12)-c4ccnc(N)n4] the same measures were < 5 µM and < 5 µM.
For `Cc1c(-c2ccnc(N)n2)sc2ccc(CNC(=O)C3CCCN3C(=O)OC(C)(C)C)cc12` (centres unmarked) [Example 289, Cc1c(sc2ccc(CNC(═O)[C]3CCCN3C(═O)OC(C)(C)C)cc12)-c4ccnc(N)n4], the results for the IC50 in assay [1] (setting [3]) and in assay [2] (setting [4]) were > 5 µM and < 5 µM, respectively.
As to `Cc1c(-c2ccnc(N)n2)sc2ccc(CNC(=O)C=Cc3ccccc3C(F)(F)F)cc12` [Example 290, Cc1c(sc2ccc(CNC(═O)C═Cc3ccccc3C(F)(F)F)cc12)-c4ccnc(N)n4], the IC50 in assay [1] (setting [3]) and in assay [2] (setting [4]) was > 5 µM in each case.
